# Experimental data as given in patent publication US6680311B1, “Cryptophycin compounds” (Eli Lilly and Company, priority 1996, dated 2004).
# Counter-ions that a name gives are not always drawn. Like-named read-outs stand apart in the source and are kept apart here.
# Key:
# [1] = tested on: GC3 human colon carcinoma cells; assay: GC3 human colon carcinoma screen (MTT); format: cell-based
# Experimental: Selected wells of a 96 well plate were seeded with GC3 human colon carcinoma cells ([…] cells in 100 μl assay medium/well) twenty four hours prior to test compound addition. Cell free assay medium was added to other select wells of the 96 well plate.
# The test compound was stored in an amber bottle prior to testing. Fresh dimethylsulfoxide stock solution (200 μg/ml) was prepared immediately prior to preparation of test sample dilutions in phosphate-buffered saline (PBS). A dilution of 1:20 dimethylsulfoxide solution in PBS was prepared such that the final concentration was 10 ug/ml. Serial 1:3 dilutions using PBS (0.5 ml previous sample of 1 ml PBS) were prepared.
# A 10 ul sample of each dilution of test compound was added in triplicate to wells of GC3 plates. The plates were incubated for 72 hours at about 37° C. A 10 μl sample of stock 3-[4,5-[…]]-2,5-diphenyltetrazolium bromide salt (“MTT” 5 mg/ml in PBS) was added to each well. The plates were incubated for about an hour at 37°. The plates were centrifuged, media was decanted from the wells and 100 μl acid-isopropanol (0.04 N HCl in isopropanol) was added to each well. The plate was read within one hour using a test wavelength of 570 nm (SpectraMax reader).
# [2] = tested on: Aortic smooth muscle (A-10) cells; assay: Effects on the cytoskeleton (immunofluorescence); format: cell-based, rat; conditions: 2 μM, 24 hours
# Experimental: (§1) A-10 cells are grown to near-confluency on glass coverslips in BME/10% FBS. Compounds in PBS are added to the indicated final concentrations and cells are incubated for an additional 24 hours. For the staining of microtubules and intermediate filaments, the cells are fixed with cold methanol and incubated with PBS containing 10% calf serum to block nonspecific binding sites. Cells are then incubated at 37° C. for 60 min. With either monoclonal anti-β-tubulin or with monoclonal anti-vimentin at dilutions recommended by the manufacturer. Bound primary antibodies are subsequently visualized by a 45 minute incubation with fluorescein-conjugated rabbit antimouse IgG. The coverslips are mounted on microscope slides and the fluorescence patterns are examined and photographed using a Zeiss Photomicroscope Ill equipped with epifluorescence optics for fluorescein. […] PBS containing 100 nM TRITC-phalloidin is then added and the mixture is allowed to incubate for 45 min. At 37° C. The cells are washed rapidly with PBS before the coverslips are mounted and immediately photographed as described above.
# After 24 hours, microtubules and vimentin intermediate filaments are visualized by indirect immunofluorescence and microfilaments are stained using TRITC-phalloidin. The morphological effects of each drug is examined. […]
# SKVLB1 cells = assay: Toxicity toward SKVLB1 cells (growth inhibition); format: cell-based; conditions: Homo sapiens, inhibition of proliferation, P-glycoprotein over expressing, vinblastine-resistant sub-line
# A-10 cells [3] = assay: Effects on taxol-stabilized microtubules; format: cell-based, rat
# Experimental: as §1
# A-10 cells are treated for 3 hours with 0 or 10 μM taxol before the addition of PBS, 100 nM vinbiastine or 10 nM cryptophycin compound. After 24 hours, microtubule organization is examined by immunofluorescence as described above. […] Similarly, microtubules pretreated with taxol are observed with cryptophycin treatment.
# [4] = Solubility in excipient / parenteral vehicles; format: physicochemical; conditions: Comparative solubility
# A-10 cells [5] = assay: Reversibility of microtubule depolymerization; format: cell-based, rat
# Experimental: as §1
# The cells are then washed and incubated in drug-free medium for periods of 1 hour or 24 hours. […] Cells are visualized for microtubule state after treatment with a cryptophycin compound of this invention at either 1 hour or 24 hours after removal of the cryptophycin compounds.
# [6] = in vitro cytotoxicity, Gc3 tumor cell model, read-out: Gc3 IC50
# [7] = Homo sapiens, Colon carcinoma cell, 72 h, read-out: GC3 IC50
# [8] = Homo sapiens, Colon carcinoma cell, 72 h, read-out: IC50 (GC3 assay)
molecule,measurement,setting,value
"COc1ccc(CC2NC(=O)C=CCC(C(C)C(OC(=O)CCC(=O)O)C(Cl)c3ccccc3)OC(=O)C(CC(C)C)OC(=O)C(C)(C)CNC2=O)cc1Cl (centres unmarked) [5′, Cryptophycin 55 Succinate]",IC50,[1]; [6],31 nM
"COc1ccc(C[C@H]2NC(=O)/C=C/C[C@@H]([C@H](C)[C@@H](OC(=O)CCC(=O)O)[C@@H](Cl)c3ccccc3)OC(=O)[C@H](CC(C)C)OC(=O)C(C)(C)CNC2=O)cc1Cl [Compound 4, Cryptophycin 55 Succinate]",IC50,[1]; [7],31 nM
"COc1ccc(C[C@H]2NC(=O)/C=C/C[C@@H]([C@H](C)[C@H](Br)[C@H](O)c3ccccc3)OC(=O)[C@H](CC(C)C)OC(=O)[C@H](C)CNC2=O)cc1Cl [CRYPTOPHYCIN-145, Cryptophycin-145]",IC50,[1]; [8],0.015 nM
Cryptophycin 55 Acetate [3′],IC50,[1]; [6],83 nM
"COc1ccc(CC2NC(=O)C=CCC(C(C)C(OC(=O)[C@@H](N)Cc3ccccc3)C(Cl)c3ccccc3)OC(=O)C(CC(C)C)OC(=O)C(C)(C)CNC2=O)cc1Cl (some centres unmarked) [13′, Cryptophycin 55 (L)-Phenylalaninate Hydrochloride Salt]",IC50,[1]; [6],7 nM
"COc1ccc(CC2NC(=O)C=CCC(C(C)C(OC(=O)C3CCCN3)C(Cl)c3ccccc3)OC(=O)C(CC(C)C)OC(=O)C(C)(C)CNC2=O)cc1Cl (centres unmarked) [17′, Cryptophycin 55 (L)-Prolinate Hydrochloride Salt]",IC50,[1]; [6],3.6 nM
"COc1ccc(C[C@H]2NC(=O)/C=C/C[C@@H]([C@H](C)[C@@H](Cl)[C@@H](O)c3ccccc3)OC(=O)[C@H](CC(C)C)OC(=O)[C@H](C)CNC2=O)cc1Cl [CRYPTOPHYCIN-140, Cryptophycin-140]",IC50,[1]; [8],863 nM
COc1ccc(C[C@H]2NC(=O)/C=C/C[C@@H]([C@H](C)[C@H](Cl)[C@@H](O)c3ccccc3)OC(=O)[C@H](CC(C)C)OC(=O)[C@H](C)CNC2=O)cc1Cl [CRYPTOPHYCIN-143],IC50,[1]; [8],850 nM
"COc1ccc(C[C@H]2NC(=O)/C=C/C[C@@H]([C@H](C)[C@@H](O)[C@@H](Cl)c3ccccc3)OC(=O)[C@H](CC(C)C)OC(=O)C(C)(C)CNC2=O)cc1Cl [1′, Cryptophycin 55]",IC50,[1]; [6],0.065 nM
"COc1ccc(C[C@H]2NC(=O)/C=C/C[C@@H]([C@H](C)[C@@H](Cl)[C@H](O)c3ccccc3)OC(=O)[C@H](CC(C)C)OC(=O)[C@H](C)CNC2=O)cc1Cl [CRYPTOPHYCIN-141, Cryptophycin-141]",IC50,[1]; [8],795 nM
"COc1ccc(CC2NC(=O)C=CCC(C(C)C(OC(=O)CN)C(Cl)c3ccccc3)OC(=O)C(CC(C)C)OC(=O)C(C)(C)CNC2=O)cc1Cl (centres unmarked) [19′, Cryptophycin 55 Glycinate Hydrochloride Salt]",IC50,[1]; [6],0.1 nM
Cryptophycin 55 (2′-phosphatyl)phenylacetate di-sodium Salt [7′],IC50,[1]; [6],3.7 nM
"COc1ccc(C[C@H]2NC(=O)/C=C/C[C@@H]([C@H](C)[C@@H](OC(=O)Cc3ccccc3OP(=O)(O)O)[C@@H](Cl)c3ccccc3)OC(=O)[C@H](CC(C)C)OC(=O)C(C)(C)CNC2=O)cc1Cl [Compound 6, Cryptophycin 55 (2′-Phosphatyl)phenylacetate di-Sodium Salt]",IC50,[1]; [7],3.7 nM
"COc1ccc(CC2NC(=O)C=CCC(C(C)C(OC(=O)[C@H](N)Cc3ccc(OC)c(Cl)c3)C(Cl)c3ccccc3)OC(=O)C(CC(C)C)OC(=O)C(C)(C)CNC2=O)cc1Cl (some centres unmarked) [11′, Cryptophycin 55 3-(3-Chloro-4-methoxyphenyl)-(D)-alaninate Hydrochloride Salt]",IC50,[1]; [6],6.8 nM
"COc1ccc(C[C@H]2NC(=O)/C=C/C[C@@H]([C@H](C)[C@@H](Br)[C@H](O)c3ccccc3)OC(=O)[C@H](CC(C)C)OC(=O)[C@H](C)CNC2=O)cc1Cl [CRYPTOPHYCIN-138, Cryptophycin-138]",IC50,[1]; [8],30.8 nM
"C=C1[C@@H](C)[C@H]2[C@H](Cc3ccccc3)NC(=O)[C@]23OC(=O)/C=C/[C@H](O)CCC[C@@H](C)C/C=C/[C@H]3[C@@H]1O [Cytochalasin B, cytochalasin B]",effect on microfilaments,[2]; TRITC-phalloidin staining,complete depolymerization of microfilaments
same,effect on distribution of microtubules or intermediate filaments,[2]; indirect immunofluorescence,did not affect
"COc1ccc(C[C@H]2NC(=O)/C=C/C[C@@H]([C@H](C)[C@@H](Br)C(=O)c3ccccc3)OC(=O)[C@H](CC(C)C)OC(=O)[C@H](C)CNC2=O)cc1Cl [CRYPTOPHYCIN-139, Cryptophycin-139]",IC50,[1]; [8],3.4 nM
"COc1ccc(C[C@H]2NC(=O)/C=C/C[C@@H]([C@H](C)[C@@H](OC(C)=O)[C@@H](Cl)c3ccccc3)OC(=O)[C@H](CC(C)C)OC(=O)C(C)(C)CNC2=O)cc1Cl [Compound 3, Cryptophycin 55 Acetate]",IC50,[1]; [7],83 nM
"CC(=O)O[C@H]1C(=O)[C@@]2(C)[C@H]([C@H](OC(=O)c3ccccc3)[C@]3(O)C[C@H](OC(=O)[C@H](O)[C@@H](NC(=O)c4ccccc4)c4ccccc4)C(C)=C1C3(C)C)[C@]1(OC(C)=O)CO[C@@H]1C[C@@H]2O [Taxol, taxol]",IC50,SKVLB1 cells,8000 nM
same,microtubule organization in taxol-treated cells,"A-10 cells [3]; 10 μM taxol, compared with control cells",extensively bundled
COc1ccc(C[C@H]2NC(=O)/C=C/C[C@@H]([C@H](C)[C@H](Cl)[C@H](O)c3ccccc3)OC(=O)[C@H](CC(C)C)OC(=O)[C@H](C)CNC2=O)cc1Cl [CRYPTOPHYCIN-142],IC50,[1]; [8],1.1 nM
"COc1ccc(CC2NC(=O)C=CCC(C(C)C(OC(=O)[C@@H](N)Cc3c[nH]cn3)C(Cl)c3ccccc3)OC(=O)C(CC(C)C)OC(=O)C(C)(C)CNC2=O)cc1Cl (some centres unmarked) [15′, Cryptophycin 55 (L)-Histidinate Dihydrochloride Salt]",IC50,[1]; [6],60 nM
Cryptophycin 55 (D)-alaninate Hydrochloride Salt [30′],IC50,[1]; [6],30 nM
"COc1ccc(C[C@H]2NC(=O)/C=C/C[C@@H]([C@H](C)[C@@H](O)[C@@H](Cl)c3ccccc3)OC(=O)[C@H](CC(C)C)OC(=O)C(C)(C)CNC2=O)cc1Cl [Compound 1, cryptophycin 55]",IC50,"[1]; Homo sapiens, Colon carcinoma cell, in vitro cytotoxicity, 72 hours, MTT, read-out: GC3 IC50",0.065 nM
same,solubility,"[4]; aqueous with cosolvent or surfactant or cyclodextrin, vehicle 1",< 1 µg/mL
same,solubility,"[4]; aqueous with cosolvent or surfactant or cyclodextrin, vehicle 2",2.6 µg/mL
same,solubility,"[4]; aqueous with cosolvent or surfactant or cyclodextrin, vehicle 3",311 µg/mL
same,solubility,"[4]; aqueous with cosolvent or surfactant or cyclodextrin, vehicle 4",361 µg/mL
same,solubility,"[4]; pH 4, aqueous buffer, vehicle 5",< 1 µg/mL
Cryptophycin 55 γ-Aminobutyrate Hydrochloride Salt [25′],IC50,[1]; [6],230 nM
"CC[C@]1(O)C[C@@H]2CN(CCc3c([nH]c4ccccc34)[C@@](C(=O)OC)(c3cc4c(cc3OC)N(C)[C@H]3[C@@](O)(C(=O)OC)[C@H](OC(C)=O)[C@]5(CC)C=CCN6CC[C@]43[C@@H]65)C2)C1 [Vinblastine, vinblastine]",IC50,SKVLB1 cells,4200 nM
same,microtubule depolymerization after taxol pretreatment,A-10 cells [3]; 100 nM vinblastine after 3 hours pretreatment with 10 μM taxol,prevented microtubule depolymerization
same,microtubule depolymerization,"A-10 cells [3]; 100 nM, 24 hours, non-pretreated cells",complete depolymerization of microtubules
same,microtubule repolymerization 1 hour after removal of drug,"A-10 cells [5]; 100 nM for 24 hr, washed, drug-free medium 1 hour",significant levels of microtubules
same,microtubule repolymerization 24 hours after removal of drug,"A-10 cells [5]; 100 nM for 24 hr, washed, drug-free medium 24 hours",complete morphological recovery
same,microtubule depolymerization,"A-10 cells [5]; 100 nM, 24 hr",complete microtubule depolymerization
Cryptophycin 55 β-Alaninate Hydrochloride Salt [21′],IC50,[1]; [6],21 nM
